Source: patent publication US20090156466A1, “Characterization of a MEKK binding site and uses thereof” (priority 2007, published 2009)

What was measured:
MEKK3 = target: T1, MEKK3 (Homo sapiens, UniProt Q99759); test: MEKK3 mobility band shift on high-ratio acrylamide:bis-acrylamide SDS-PAGE of lysates from treated cells; format: cell-based; conditions: MEKK3 expressed in treated HEK293 cells; data not shown
T1 construct: expressed in transfected cells; host or cells: HEK 293
T1 sequence (Q99759 1-626): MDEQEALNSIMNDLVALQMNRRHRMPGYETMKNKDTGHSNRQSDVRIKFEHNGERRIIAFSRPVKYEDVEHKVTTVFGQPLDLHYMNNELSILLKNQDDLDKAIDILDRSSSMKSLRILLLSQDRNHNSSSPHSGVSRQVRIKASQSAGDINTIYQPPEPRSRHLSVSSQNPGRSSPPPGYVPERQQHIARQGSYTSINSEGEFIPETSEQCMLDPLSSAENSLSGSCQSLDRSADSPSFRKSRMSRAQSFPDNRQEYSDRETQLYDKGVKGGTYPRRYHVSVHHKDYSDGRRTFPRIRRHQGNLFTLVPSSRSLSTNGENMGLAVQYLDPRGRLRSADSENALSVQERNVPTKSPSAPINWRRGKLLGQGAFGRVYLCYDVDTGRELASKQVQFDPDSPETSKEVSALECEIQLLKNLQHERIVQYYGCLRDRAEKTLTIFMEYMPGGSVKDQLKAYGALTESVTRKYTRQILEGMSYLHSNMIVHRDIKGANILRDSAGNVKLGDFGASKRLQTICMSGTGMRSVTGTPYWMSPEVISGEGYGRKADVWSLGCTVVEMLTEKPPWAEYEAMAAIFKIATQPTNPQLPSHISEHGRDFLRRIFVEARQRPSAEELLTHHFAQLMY

MEKK3-14-3-3 interaction = target: T2, MEKK3-14-3-3 interaction (Homo sapiens, UniProt Q99759); test: Co-immunoprecipitation of 14-3-3 with FLAG-MEKK3 from HEK 293 cells treated with kinase inhibitor; format: cell-based; conditions: HEK 293 cells with wt MEKK3; 1 μM, 5 μM or 10 μM for 20 min prior to solubilization
T2 construct: expressed in transfected cells; host or cells: HEK 293
T2 sequence (Q99759 1-626): T1 sequence (Q99759 1-626)
Description: A, B. HEK 293 cells were transfected with wildtype (wt) MEKK3, K391M MEKK3, or S526A MEKK (shown in B) or empty vector. After 24 hours, cells were solubilized, and FLAG-MEKK3 was immunoprecipitated with anti-FLAG M2-conjugated agarose. Proteins were resolved by SDS-PAGE, and immunoblotted with anti-FLAG antibody or anti-14-3-3β antibody (which recognizes the family of 14-3-3 proteins). C. HEK 293 cells were transfected with wt MEKK3 for 24 hours, and then treated with staurosporine (1 μM, 5 μM, or 10 μM) for 20 min prior to solubilization. MEKK3 and 14-3-3 were detected as in A.
HEK 293 cells were plated onto 35-mm-diameter dishes at 80% confluency, and transfected with 100 to 500 ng of cDNA using Lipofectamine-2000 (Gibco-BRL) following the manufacturer's protocol. Transfection medium was removed and replaced with complete DMEM overnight.
Cells were lysed in 50 mM Tris-HCl, pH 7.4, 1% Triton X-100, 25 mM NaF, 25 mM β-glycerophosphate, 5 mM EDTA, 0.05% SDS, 1.0 μg/ml microcystin LR, and protease inhibitors. […] FLAG was stained with anti-FLAG M2 mouse monoclonal (Sigma), and 14-3-3 isoforms were detected with anti-14-3-3β (H8; Santa Cruz Biotechnology).
The family of 14-3-3 proteins was detected by immunoblotting with a pan-specific 14-3-3 antibody raised against a common sequence present in all family members. […]

Row | SMILES | MEKK3 band shift (mobility shift on SDS-PAGE) (MEKK3) | MEKK3-14-3-3 interaction (14-3-3 co-immunoprecipitation) (MEKK3-14-3-3 interaction)
1 | N#CC(=C(/N)Sc1ccccc1N)/C(C#N)=C(\N)Sc1ccccc1N [U0126] | had no effect on mobility shift | –
2 | CN[C@@H]1C[C@H]2O[C@@](C)([C@@H]1OC)n1c3ccccc3c3c4c(c5c6ccccc6n2c5c31)C(=O)NC4 [staurosporine] | reduced the MEKK3 band shift | disrupted MEKK3-14-3-3 interaction
